Data as given in publication PMC6874683, “Pyrrothiogatain acts as an inhibitor of GATA family proteins and inhibits Th2 cell differentiation in vitro” (Scientific Reports, 2019).

Assays:
[1] = tested on: GATA3 binding to Th2 cytokine gene locus; test: Chromatin immunoprecipitation with anti-GATA3 antibody in Th2 cells; assay type: cell-based, mouse; conditions: naive CD4+ T cells, Th2 conditions, 80 µM, 2 days
Experimental: GATA3 has been reported to bind to Th2 cytokine gene locus, such as IL-4 VA enhancer, IL-4 intron enhancer, conserved Gata3-response element (CGRE)[26] and IL-5 promoter[27] regions in Th2 cells. We investigated whether pyrrothiogatain inhibited GATA3 binding to Th2 cytokine gene locus. Naive CD4^+ T cells were cultured under Th2 conditions in the presence or absence of 80 µM pyrrothiogatain for 2 days, and then the cells were subjected to chromatin immunoprecipitation with an anti-GATA3 antibody.
The Magna ChIP Chromatin Immunoprecipitation Kit was used for the ChIP assay according to the manufacturer’s protocol (Merck-Millipore). Anti-GATA3 antibody (Cat#AF2605, R&D systems) was used for chromatin immunoprecipitation. The specific primers for the Th2 cytokine gene locus and the Roche Universal probes were used as follows: the VA site in the IL-4 enhancer: 5′-[…]-3′ (forward), 5′-[…]-3′ (reverse), probe #4; IL-4 IE: 5′-[…]-3′ (forward), 5′-AAATCCGAAACTGA GGAGTGC-3′ (reverse), probe #75; CGRE: 5′-CTCTCCTGGTGGCGTGTT-3′ (forward), 5′-CTTTGCGCACCCTTGAAC-3′ (reverse), probe #53; and IL-5p: 5′-[…]-3′ (forward), 5′-[…]-3′ (reverse), probe #43;

GATA3 expression = test: Immunoblot of GATA3, naive CD4+ T cells under Th2 conditions; assay type: cell-based, mouse; conditions: 80 µM, 5 days
Experimental: Figure 5 Pyrrothiogatain inhibits Th2 cell differentiation and production of Th2 cytokines. (A) Intracellular staining of IL-5/IL-13, IL-4/IFN-γ, and IL-2/IFN-γ in naive CD4^+ T cells cultured under Th2 conditions in the presence or absence of pyrrothiogatain (30 and 80 µM) for five days. (B) Cytokine production induced in the pyrrothiogatain treated Th2 cells shown in panel (A) was determined by ELISA. (C) Quantitative RT-PCR analysis of the pyrrothiogatain-treated Th2 cells shown in panel (A). (D) Immunoblot analysis of GATA3 in naive CD4^+ T cells cultured under Th2 conditions in the presence or absence of pyrrothiogatain (80 µM) for 5 days. (E) Cytokine production from Th2 cells stimulated with immobilized anti-TCRβ mAb for 16 h in the presence or absence of pyrrothiogatain (0 to 100 µM). The amounts of IL-4, IL-5 and IL-13 in the culture supernatants were determined by ELSA. In (B), (C) and (E), all data are expressed as individual points of three independent experiments with error bars indicating standard deviation. […]

Structure (SMILES): Cc1ccc(C)n1-c1ccsc1C(=O)O [Pyrrothiogatain, 3-(2,5-dimethyl-1H-pyrrol-1-yl)thiophene-2-carboxylic acid]
- GATA3 binding to the IL-4 VA enhancer, IL-4 intron enhancer, CGRE and IL-5 promoter regions [1]: repressed
- Expression of GATA3, protein level (GATA3 expression): not influenced
